13 compounds from ChEMBL document CHEMBL1201862, “PubChem BioAssay data set” (2004) can be followed below.

Among the test systems are ACHN; EKVX; HCC 2998; HL-60; MDA-N; NCI-H226; NCI-H460; OVCAR-5; OVCAR-8; RXF 393; SK-MEL-28; SK-MEL-2; SK-OV-3; SW-620; UACC-257; COLO 205; HCT-116; MDA-MB-435; NCI/ADR-RES.
What all share (assay): inhibition of tumour cell growth, NCI panel, 48 h

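Method: 48-hour compound exposure of cells in 96-well plates, five concentrations, linear interpolation of endpoints. GI50: concentration for 50% inhibition of growth.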 Activity calls are given as the source filed them. No stated cut-off is given here; in the data, active = GI50 up to about 1.1 µM and inactive = higher. Bounds are passed on as bounds.

Consider `O=C1C=C(N2CCCC2)C(=O)c2c(O)ccc(O)c21`, for which the GI50 in the experiment with ACHN was > 10 µM (inactive); with EKVX, > 10 µM (inactive); with HCC 2998 it was > 10 µM (inactive); in the experiment on HL-60, 4.52 µM (inactive); in the experiment on MDA-N, > 10 µM (inactive); in the experiment on NCI-H226, > 10 µM (inactive). Also, the GI50 in the experiment with NCI-H460, with OVCAR-5, with OVCAR-8, in the experiment on RXF 393, in the experiment on SK-MEL-28 and with SK-MEL-2 was > 10 µM (inactive) each time. For the same compound, the GI50 in the experiment with SK-OV-3, with SW-620 and in the experiment on UACC-257 was > 10 µM (inactive) in each case.
Turning to `CCC(=O)Nc1ccc(/N=N/N(C)C)cc1`, the GI50 is > 100 µM (inactive) in the experiment on ACHN; 63.4 µM (inactive) in the experiment on COLO 205; > 100 µM (inactive) in the experiment with EKVX; 1.66 µM (inactive) with HCC 2998; > 100 µM (inactive) with HCT-116; 42.8 µM (inactive) in the experiment with HL-60. For the same compound, the GI50 in the experiment with MDA-MB-435, with NCI-H226, in the experiment with NCI-H460, in the experiment with NCI/ADR-RES, in the experiment on OVCAR-5 and in the experiment on OVCAR-8 was > 100 µM (inactive) throughout. For the same compound, the GI50 in the experiment on RXF 393, with SK-MEL-28, with SK-MEL-2, with SK-OV-3, in the experiment on SW-620 and in the experiment on UACC-257 was > 100 µM (inactive) throughout.
On to `Cc1c(C(=O)CSc2nc3ccccc3c(=O)n2-c2ccccc2)c(=O)n(-c2ccccc2)n1C`, for which the GI50 with ACHN was 35.2 µM (inactive); with COLO 205, > 100 µM (inactive); with HCC 2998, > 100 µM (inactive); with HCT-116, 68.2 µM (inactive); with HL-60, > 100 µM (inactive); with NCI-H226 it was 23.3 µM (inactive). The GI50 in the experiment with NCI-H460 was 37.8 µM (inactive); in the experiment with OVCAR-5, > 100 µM (inactive); in the experiment on SK-MEL-28 it was 99.3 µM (inactive); in the experiment with SK-MEL-2, > 100 µM (inactive); with SK-OV-3, 19.3 µM (inactive); in the experiment on SW-620, > 100 µM (inactive). Also, the GI50 in the experiment with UACC-257 was 47.3 µM (inactive).
As for `CC(C)=NOC(=O)Nc1cccc2c1OCO2`, the GI50 is 80.9 µM (inactive) with ACHN; > 100 µM (inactive) in the experiment on COLO 205; > 100 µM (inactive) in the experiment with EKVX; > 100 µM (inactive) in the experiment on HCC 2998; > 100 µM (inactive) with HCT-116; > 100 µM (inactive) in the experiment on MDA-MB-435. The GI50 with NCI-H226, in the experiment with NCI-H460, with NCI/ADR-RES, in the experiment on OVCAR-5, with OVCAR-8 and in the experiment with RXF 393 was > 100 µM (inactive) throughout. In addition, the GI50 in the experiment on SK-MEL-28, in the experiment on SK-MEL-2, in the experiment on SK-OV-3, with SW-620 and in the experiment on UACC-257 was > 100 µM (inactive) throughout.
Turning to `C/C(=N\O)c1ccc(Nc2nc3ccccc3c3occc23)cc1`, the GI50 in the experiment on ACHN was 9.82 µM (inactive); with COLO 205, 4.66 µM (inactive); with EKVX it was 21.7 µM (inactive); in the experiment on HCC 2998, 4.1 µM (inactive); in the experiment on HCT-116 it was 4.89 µM (inactive); in the experiment on HL-60, 2.29 µM (inactive). Further, the GI50 with MDA-MB-435 is 6.58 µM (inactive); in the experiment on MDA-N it was 11.8 µM (inactive); in the experiment with NCI-H226, 2.33 µM (inactive); in the experiment with NCI-H460 it was 1.82 µM (inactive); with NCI/ADR-RES it was 6.76 µM (inactive); in the experiment with OVCAR-5, 8.3 µM (inactive). The GI50 with OVCAR-8 was 15.2 µM (inactive); with SK-MEL-2, 12.6 µM (inactive); with SK-OV-3, 18.6 µM (inactive); in the experiment on UACC-257, 5.12 µM (inactive).
For `COC1=CC(=O)C2C(C1=O)[C@@H]1c3ccccc3C[C@H]21` (some centres undefined), the GI50 with ACHN, with COLO 205, in the experiment on EKVX, in the experiment on HCC 2998, in the experiment with HL-60 and in the experiment with NCI-H460 was > 100 µM (inactive) throughout. Also, the GI50 in the experiment with OVCAR-5 was > 100 µM (inactive); in the experiment with OVCAR-8, 85.3 µM (inactive); in the experiment with RXF 393, > 100 µM (inactive); in the experiment on SK-MEL-28, > 100 µM (inactive); in the experiment with SK-MEL-2 it was > 100 µM (inactive); in the experiment with SK-OV-3 it was > 100 µM (inactive). Further, the GI50 in the experiment on SW-620 and in the experiment on UACC-257 was > 100 µM (inactive) throughout.
For the compound `COc1cc2c(c(O)c1OC)CC1CCC(=O)N1C2c1cccc2ccccc12` (centres undefined), the GI50 is 29.3 µM (inactive) in the experiment on ACHN; 15.6 µM (inactive) in the experiment with COLO 205; 22.3 µM (inactive) in the experiment with EKVX; 16 µM (inactive) with HCC 2998; 20.4 µM (inactive) with HCT-116; 0.813 µM (active) with HL-60. Besides, the GI50 was 19.2 µM (inactive) in the experiment with MDA-MB-435; 16.3 µM (inactive) in the experiment with MDA-N; 22.9 µM (inactive) in the experiment on NCI-H460; 19.4 µM (inactive) with NCI/ADR-RES; 19.1 µM (inactive) with OVCAR-5; 20 µM (inactive) in the experiment with OVCAR-8. Moreover, the GI50 with SK-MEL-28 is 21.9 µM (inactive); in the experiment with SK-MEL-2 it was 17.5 µM (inactive); with SK-OV-3, 18.9 µM (inactive); in the experiment with SW-620 it was 27.7 µM (inactive); in the experiment on UACC-257 it was 23.6 µM (inactive).
Regarding `CCc1nnc(S)n1/N=C/c1ccc(-c2ccc([N+](=O)[O-])cc2)o1`, the GI50 in the experiment on ACHN, in the experiment on COLO 205, in the experiment with HCC 2998, with HCT-116, in the experiment on HL-60 and in the experiment on NCI-H226 was > 100 µM (inactive) throughout. Also, the GI50 in the experiment with NCI-H460, with OVCAR-5, with OVCAR-8, with SK-MEL-28, with SK-MEL-2 and in the experiment on SK-OV-3 was > 100 µM (inactive) each time. Besides, the GI50 with SW-620 and with UACC-257 was > 100 µM (inactive) each time.
`COC(=O)C1=C(C(=O)OC)C2(C)Nc3ccccc3C2=C(c2ccccc2)C1` (centres undefined): the GI50 with ACHN was 22.1 µM (inactive); in the experiment with COLO 205 it was 19.2 µM (inactive); with EKVX it was 28.8 µM (inactive); in the experiment with HCC 2998, 26.2 µM (inactive); in the experiment on HCT-116, 19 µM (inactive); with HL-60 it was 19.9 µM (inactive). Further, the GI50 in the experiment on NCI-H460 was 19.4 µM (inactive); in the experiment on OVCAR-5, 24.5 µM (inactive); in the experiment with OVCAR-8 it was 25 µM (inactive); in the experiment with RXF 393, 21.3 µM (inactive); with SK-MEL-28 it was 19.8 µM (inactive); in the experiment with SK-MEL-2, 17.8 µM (inactive). For the same compound, the GI50 with SW-620 was 26.5 µM (inactive); in the experiment on UACC-257, 17.9 µM (inactive).
Turning to `CC/C=C/C(=O)CC(O)(C(F)(F)F)C(F)(F)F`, the GI50 with ACHN was > 100 µM (inactive); in the experiment on COLO 205, > 100 µM (inactive); in the experiment with EKVX, > 100 µM (inactive); with HCC 2998, > 100 µM (inactive); with HCT-116, > 100 µM (inactive); in the experiment with HL-60 it was 92.7 µM (inactive). Moreover, the GI50 in the experiment with MDA-MB-435, in the experiment on NCI-H226, in the experiment with NCI-H460, in the experiment on NCI/ADR-RES, in the experiment with OVCAR-5 and in the experiment on OVCAR-8 was > 100 µM (inactive) in each case. Besides, the GI50 in the experiment with RXF 393, with SK-MEL-28, in the experiment with SK-OV-3, in the experiment on SW-620 and with UACC-257 was > 100 µM (inactive) throughout.
For `COC12CCC(C(C(=O)c3ccccc3)=C1C(=O)c1ccccc1)C(O)C2` (centres undefined), the GI50 in the experiment with COLO 205, in the experiment on EKVX, in the experiment on HCC 2998, in the experiment with HCT-116, in the experiment with HL-60 and in the experiment with NCI-H226 was > 100 µM (inactive) each time. Further, the GI50 in the experiment on OVCAR-8, in the experiment with SK-MEL-28, in the experiment with SK-MEL-2, in the experiment on SK-OV-3, with SW-620 and in the experiment on UACC-257 was > 100 µM (inactive) throughout.
Take `CC(=O)NNC1=NN(C(C)=O)C2(S1)C(=O)Nc1ccc(Br)cc12` (centres undefined): the GI50 with ACHN is > 100 µM (inactive); with COLO 205, > 10 µM (inactive); in the experiment with EKVX, > 100 µM (inactive); in the experiment with HCC 2998, > 100 µM (inactive); in the experiment on HCT-116 it was > 100 µM (inactive); with HL-60, > 100 µM (inactive). Moreover, the GI50 in the experiment on MDA-MB-435 was > 100 µM (inactive); in the experiment with NCI-H226, > 100 µM (inactive); in the experiment with NCI-H460 it was 93.3 µM (inactive); with NCI/ADR-RES it was > 100 µM (inactive); in the experiment with OVCAR-5 it was > 100 µM (inactive); with OVCAR-8, > 100 µM (inactive). In addition, the GI50 in the experiment on RXF 393, in the experiment with SK-MEL-28, with SK-MEL-2 and in the experiment on UACC-257 was > 100 µM (inactive) in each case.
As for `N#C/C(=C\c1cc(O)cc(O)c1)C(N)=O`, the GI50 with ACHN was > 100 µM (inactive); in the experiment with COLO 205, > 100 µM (inactive); with EKVX, > 100 µM (inactive); with HCC 2998 it was > 100 µM (inactive); in the experiment with HCT-116 it was > 100 µM (inactive); in the experiment with HL-60, > 10 µM (inactive). Also, the GI50 with NCI-H226, in the experiment on NCI-H460, in the experiment with OVCAR-5, with OVCAR-8, in the experiment with RXF 393 and in the experiment with SK-MEL-28 was > 100 µM (inactive) in each case. In addition, the GI50 in the experiment with SK-MEL-2, in the experiment with SK-OV-3, in the experiment with SW-620 and with UACC-257 was > 100 µM (inactive) throughout.
